Reference: paper PMC9499467, “Phenanthroindolizidine Alkaloids Isolated from Tylophora ovata as Potent Inhibitors of Inflammation, Spheroid Growth, and Invasion of Triple-Negative Breast Cancer” (International Journal of Molecular Sciences, 2022)

What was measured:
[1] = tested on: NFκB; experiment: NFκB inhibition assay (24 h), NFκB-dependent firefly luciferase reporter; type: cell-based; settings: Homo sapiens, 24 h, read-out: NFκB Inhibition 24 h IC50
Description: On day 1, 3 × 10^4 NFκB MDA-MB-231-firefly cells were seeded into white 96 well plates (Greiner; #655098). On day 2, the medium was replaced with starvation medium and the cells were pre-incubated for 20 min with either 100 µL of DMSO (Roth; #A994.1) alone at maximal 0.1%, or with the final concentration of the diluted compounds (Table 3). To activate NFκB signaling, cells were stimulated with 20 ng/mL TNFα (Peprotech, Hamburg, Germany; #300-01A). Cell lysis was performed in 20 µL 1× cell lysis buffer according to the manufacturer’s instruction for the Luciferase Assay System (Promega #E1500). NFκB-dependent luminescence was determined as relative light units (RLU) using the microplate reader Spark® (Tecan).

[2] = tested on: IκBα; experiment: Western blot of IκBα after TNFα stimulation; type: cell-based; settings: MDA-MB-468-UnaG
Description: We investigated NFκB-blocking by determining the protein expression of its cytoplasmic inhibitor IκBα in MDA-MB-468-UnaG cells. On day 1, the cells were seeded into a 6 well plate (Greiner; #657160). On day 2, the cells were either left untreated (normoxia) or exposed to 100 µM CoCl2 (hypoxia) (Sigma-Aldrich; #C8661). On day 3, the medium was replaced, and cells were either exposed to DMSO (Roth; #A994.1) alone at maximal 0.1% or to compound (1s) at the concentrations 2 nM, 5 nM, 10 nM, 20 nM, or 50 nM for 1 h. An amount of 10 ng/mL TNFα was applied as a positive control. […] An amount of 20 µg of the total protein was separated on a ready-to-use 12% SDS-gel (Bio-Rad, Düsseldorf, Germany; #456-1044). […] For protein detection via chemiluminescence, the membrane was incubated in HRP-substrate (Thermo Fisher Scientific; #34577) for 5 min and the signal was recorded using the Fusion Pulse TS microscope (VILBER, Eberhardzell; Germany). Signal quantification was performed using the software EvolutionCapt (VILBER). […]
Figure 8 Compound (1s) stabilizes IκBα under normoxic and under hypoxic conditions. […] Statistical difference vs. TNFα was calculated with two-way ANOVA (* p < 0.05, ** p < 0.01, *** p < 0.001). […]

[3] = tested on: MDA-MB-231 monoculture spheroids; experiment: 3D invasion of monoculture spheroids into matrigel; type: cell-based, human; settings: 10 nM, 48 h
Description: To study TNBC invasion in an extracellular matrix (ECM)-like environment, mono-culture spheroids of MDA-MB-231 were generated in matrigel®, as described. In brief, 3000 MDA-MB-231 cells were seeded in 0.25% (v/v) matrigel® (Corning, Taufkirchen, Germany; #356432) into a low-attachment 96 well plate (Greiner; #650970 or Cenibra, Bramsche, Germany; #ULA-96U). For cell aggregation, cells were centrifugated for 10 min at 136× g at 4 °C before being grown for 72 h. Invasion was allowed for another […] before analyzing at least three spheroids per treatment group. For that purpose, brightfield images of the spheroids were acquired at 50× g magnification using the microscope Axio Vert.A1 (Zeiss). The spheroid area before treatment and the spheroid area including the invaded area after compound treatment were quantified in brightfield images using Fiji (open-source software; version 1.52i).
Figure 6 Compound (1s) blocks TNBC monoculture spheroid invasion in a matrigel®-based extracellular matrix (ECM). […] (a) Invaded area was measured using Fiji (open-source software; version 1.52i) with manually picked positions (white squares) to determine the outline (yellow line) of the spheroid area within 0 h and after 48-h treatment. […] (c) Invaded area is calculated by normalizing the spheroid area after 48 h treatment to the spheroid size at 0 h. […]

COc1ccc2c3c(c4cc(OC)c(OC)cc4c2c1)CN1CCCC1C3O (stereo not shown) [Compound (1), O-methyltylophorinidine]
IC50 [1]: 3.7 ± 1 nM

COc1ccc2c3c(c4cc(OC)c(OC)cc4c2c1)CN1CCCC1C3O (stereo not shown) [Compound (1s), O-methyltylophorinidine]
TNFα-mediated IκBα degradation ([2]; CoCl2-simulated hypoxia, 20 nM): suppressed | IκBα protein level after TNFα ([2]; normoxia, 20 nM pre-incubation 1 h, TNFα 10 ng/mL 30 min): stabilized IκBα | blockade of invasion (invaded area) [3]: approximately 65%
